Data as given in publication PMC8760490, “Discovery of novel furanylbenzamide inhibitors that target oncogenic tyrosine phosphatase SHP2 in leukemia cells” (The Journal of Biological Chemistry, 2021).

Legend:
MDA-MB-468 TNBC cells [1] = test: 11-day colony formation assay, MDA-MB-468; assay type: cell-based; conditions: 5, 10 or 20 μM, 11 days
Procedure: (§1) Inhibition of SHP2 has been reported to inhibit the growth of cancer cells including Kasumi-1 acute myeloid leukemia (AML) and KYSE-520 esophageal cancer cells ([30]). […] Thus, we treated two TNBC cell lines, BT-549 and MDA-MB-468, with SBI-4668 or the SHP2 allosteric inhibitor SHP099 at various concentrations and determined cell viability after 72 h, compared with the vehicle control (Fig. 4C). […] Next, we performed an 11-day colony formation assay with TNBC cells treated with SBI-4668 or SHP099 at 5, 10, or 20 μM (Fig. 4D).
(§2) MDA-MB-468 and […] triple-negative breast cancer cells were maintained in Dulbecco's modified Eagle's medium + 10% FBS supplemented with 1× penicillin–streptomycin/L-glutamine (Omega Scientific). About 1500 cells (in 300 μl) were seeded per well of a standard 24-well tissue culture plate (Falcon) and allowed to adhere for 24 h, before the addition of compound(s) as described. After a further 96 h, media were replaced with fresh media containing the same test compounds and concentrations. After 11 days, media were removed, and cells stained with 0.5% crystal violet (in 20% methanol; Sigma) for 20 min with agitation at 80 rpm. Stain was removed, and plates with stained cells were washed by being submerged in excess deionized water and allowed to air dry overnight before imaging.

MDA-MB-468 TNBC cells [2] = test: TNBC cell viability (CellTiter-Glo), MDA-MB-468; assay type: cell-based; conditions: various concentrations
Procedure: as §1
(§3) Triple-negative breast cancer cell viability was assessed using the ATP-depletion assay CellTiter-Glo. Briefly, 2500 cells in 25 μl media (RPMI + 10% FBS + 1× penicillin–streptomycin [Omega Scientific]) were seeded per well of a 384-well tissue culture–treated plate (Greiner). About 25 nl of 1000× test compound were added using a Labcyte Echo acoustic dispenser, and the cells were incubated for 5 days before addition of 10 μl of CellTiter-Glo reagent as described by the manufacturer. Luminescence was detected on a BioTek Synergy 2 microplate reader, and the values normalized to those of vehicle (DMSO)-treated controls before being plotted using GraphPad Prism.

BT-549 TNBC cells [3] = test: 11-day colony formation assay, BT-549; assay type: cell-based; conditions: 5, 10 or 20 μM, 11 days
Procedure: as §1, §2

BT-549 TNBC cells [4] = test: TNBC cell viability (CellTiter-Glo), BT-549; assay type: cell-based; conditions: various concentrations
Procedure: as §1, §3

MOLM-13 AML cells = test: Cell viability (CellTiter-Glo), MOLM-13; assay type: cell-based; conditions: 72 h, 30 μM to 58 nM, regular MOLM-13 expressing WT SHP2 (Fig. 4G); read-out: MOLM-13 cell viability IC50 (parallel to SHP2 KO)
Procedure: as §1
Finally, we evaluated the selectivity of our top two compounds, SBI-2130 and SBI-4668, on MOLM-13 AML cells in which SHP2 was depleted using CRISPR–Cas9 KO. High-efficiency Cas9-editing MOLM-13 cells were generated by transducing MOLM-13 cells with a Cas9 lentiviral construct. Stable clones were tested for editing efficiency by performing tracking of indels by decomposition analysis ([45]), and these MOLM-13-Cas9 cells were transduced with a lentiviral construct containing an AAVS1 single-guide RNA (sgRNA) and an mCherry reporter for bulk sorting of cells with successful AAVS1 editing. SHP2 KO was achieved by transducing MOLM-13-Cas9-mCherry cells with a lentivirus, containing SHP2 dual sgRNAs, resulting in ∼80% reduction of SHP2 protein levels (Fig. 4G). SBI-2130, SBI-4668, and the SHP2 allosteric inhibitor, SHP099, were tested in parallel on regular MOLM-13 cells (expressing WT SHP2) and MOLM-13-Cas9-mCherry cells with SHP2 KO. Cells were treated with inhibitors at various concentrations (ranging from 30 μM to 58 nM) or vehicle control (DMSO) for 72 h, before cell viability was assessed.
Viability of AML and esophageal carcinoma cells was assessed using the ATP-depletion assay CellTiter-Glo (Promega). Cells were harvested at 1 × 10^6/ml to 2 × 10^6 cells/ml with cell numbers determined by trypan blue using the Countess Cell counter (Thermo Scientific) and resuspended in culture media. About 3000 cells (in 20 μl) were seeded in a 384-well format white and clear-bottom microplate (catalog no.: 781098; Greiner) spotted with test compound or vehicle control (DMSO) using an Echo 555 Liquid Handler. […] Luminescence was read on a Tecan Spark Multimode Microplate Reader, and data were analyzed using GraphPad Prism software.
For SHP2 KO, dual sgRNAs targeting SHP2 were cloned in the pLentiGuide puro vector (Addgene plasmid no. 52963 from Dr Feng Zhang) using a published protocol ([50]). […] SHP2 KO was evaluated by immunoblotting. […] For SHP2 KO, MOLM-13-Cas9-mCherry cells were seeded in nontreated 6-well plates (2 × 10^6 cells/well in 2.5 ml), with cell numbers determined by trypan blue using the Countess Cell Counter (Thermo Scientific). […]

[5] = system: KYSE-520 esophageal cancer cells; test: Cell viability (CellTiter-Glo), KYSE-520; assay type: cell-based; conditions: various concentrations, 3 days
Procedure: as §1
(§4) Viability of AML and esophageal carcinoma cells was assessed using the ATP-depletion assay CellTiter-Glo (Promega). Cells were harvested at 1 × 10^6/ml to 2 × 10^6 cells/ml with cell numbers determined by trypan blue using the Countess Cell counter (Thermo Scientific) and resuspended in culture media. About 3000 cells (in 20 μl) were seeded in a 384-well format white and clear-bottom microplate (catalog no.: 781098; Greiner) spotted with test compound or vehicle control (DMSO) using an Echo 555 Liquid Handler. Cells were incubated for 3 days, before 10 μl of CellTiter-Glo reagent mix was added to each well and incubated for 10 min at RT. Luminescence was read on a Tecan Spark Multimode Microplate Reader, and data were analyzed using GraphPad Prism software.

[6] = system: Kasumi-1 acute myeloid leukemia (AML) cells; test: Cell viability (CellTiter-Glo), Kasumi-1; assay type: cell-based; conditions: various concentrations, 3 days
Procedure: as §1, §4

[7] = target: T1, full-length SHP2 WT (SHP2-WT) (Homo sapiens, UniProt Q06124); test: DiFMUP fluorescence phosphatase inhibition assay, SHP2-WT activated with IRS-1 peptide; assay type: biochemical; conditions: DiFMUP at Km (60 μM), pH 6.0
T1 construct: Recombinant human full-length SHP2 (1–594) WT and E76K mutants; made in house
Source text: To test the synthesized compounds for their potential to inhibit SHP2 activity, a fluorescence intensity-based assay using 6,8-difluoro-4-methylumbelliferyl phosphate (DiFMUP) as the substrate was adapted for three recombinant SHP2 constructs: (1) the SHP2 catalytic domain (SHP2cat; residues 248–527), (2) the full-length SHP2-E76K oncogenic mutant, and (3) the full-length SHP2 WT (SHP2-WT). The recombinant SHP2 proteins were expressed and purified as described previously ([36]). A dually phosphorylated peptide derived from the insulin receptor substrate 1 (IRS-1) served as a surrogate binding protein and was used to activate SHP2-WT ([30], [36]). […] Michaelis–Menten experiments to determine the DiFMUP Michaelis–Menten constant (Km) for each SHP2 construct were performed as described previously ([36]) and yielded the following values: SHP2-WT, Km = 60 μM; SHP2-E76K, Km = 20 μM; and SHP2cat, Km = 20 μM. Relative maximum rates (Vmax) of the DiFMUP reactions expressed as relative fluorescence units per minute (RFU/min) were as follows: SHP2-WT, Vmax = 871 RFU/min; SHP2-E76K, Vmax = 2730 RFU/min; and SHP2cat, Vmax = 2912 RFU/min. IC50 values for each compound were determined from initial rates in 10-point dose–response assays using DiFMUP at a concentration corresponding to its Km value for the respective SHP2 construct. […] Replacements for the benzothiophenone were explored using analog #10.
Recombinant human full-length SHP2 (1–594) WT and E76K mutants, as well as the SHP2cat (248–527), were expressed and purified as described before ([36], [41]). Recombinant human PTP1B (1–300) and the codon-optimized STEP (280–566) catalytic domains were cloned into PET-15b and expressed as N-His-tagged fusion proteins. For expression, transformed BL21(DE3) cells were grown and induced similar as described for SHP2. Collected cells were resuspended in lysis buffer (25 mM Tris, pH 7.5, 300 mM NaCl, 50 mM imidazole, and 10% glycerol) with 100 mg/l RNaseA and were lysed with two passages using a microfluidizer. The lysate was clarified by centrifugation at 15,000g for 50 min and applied to nickel–nitrilotriacetic acid resin. The column resin was washed, and the PTP1B or STEP protein was eluted in lysis buffer at 300 mM imidazole. The PTP1B or STEP protein was further purified by S75 size-exclusion chromatography in 50 mM Tris, pH 7.5, 50 mM NaCl. The eluted peak fractions were supplemented with tris(2-carboxyethyl)phosphine to 10 mM, concentrated by ultrafiltration, and stored at −80 °C. The purified yield of PTP1B was 33 mg/l cell culture; the yield of STEP was 16 mg/l cell culture.
SHP2 inhibitors were tested at RT in a 384-well plate format standard phosphatase fluorescence intensity assay using DiFMUP (Invitrogen/Thermo Fisher Scientific) as a substrate and a total reaction volume of 25 μl. SHP2 inhibitors or vehicle (DMSO) were spotted in triplicate into a black Greiner FLUOTRAC 200 384-well microplate (catalog no.: 781076; Greiner) for a 10-point dose–response assay using an Echo 555 Liquid Handler (Labcyte, Inc). PTP working solutions were prepared at a 0.625 nM concentration (for a final concentration of 0.5 nM) in buffer containing 50 mM Bis–Tris, pH 6.0, 50 mM NaCl, 5 mM DTT, and 0.01% Tween-20. Prior to the assay, a dually phosphorylated IRS-1 peptide (625 nM [500 nM final] ([30])) was added to full-length WT SHP2 working solutions and incubated for 20 min. DiFMUP working solutions at 5× final concentration were prepared in 50 mM Bis–Tris, pH 6.0, 50 mM NaCl, and 0.01% Tween-20. About 20 μl of PTP working solution was dispensed into the microplate and incubated with inhibitor for 20 min at RT. […] The reaction was initiated by addition of 5 μl DiFMUP working solutions. Fluorescence intensity was measured in kinetic mode (every minute for 7 or 10 min) using a Tecan Spark Multimode Microplate Reader (Tecan) with an excitation wavelength of 360 nm and an emission wavelength of 460 nm. […]

Row | IC50 (MOLM-13 AML cells) [µM] | IC50 [7] [µM] | SMILES | colony formation, MDA-MB-468 (MDA-MB-468 TNBC cells [1]) | effect on MDA-MB-468 cell viability (MDA-MB-468 TNBC cells [2]) | colony formation, BT-549 (BT-549 TNBC cells [3]) | effect on BT-549 cell viability (BT-549 TNBC cells [4]) | effect on KYSE-520 cell growth [5] | effect on Kasumi-1 cell growth [6]
1 | 9.4 | – | CC1(N)CCN(c2cnc(-c3cccc(Cl)c3Cl)c(N)n2)CC1 [SHP099, reference compound] | very weak effect | very minor effect | very weak effect | very minor effect | – | –
2 | – | > 100 | CC(C)NC(=O)c1cccc(-c2ccc(/C=C3\Sc4ccccc4C3=O)o2)c1 [SBI-9639, (Z)-N-isopropyl-3-(5-((3-oxobenzo[b]thiophen-2(3H)-ylidene)methyl)furan-2-yl)benzamide] | – | – | – | – | no notable effects | no notable effects
